The values below come from patent publication US12503454B2, “LPA receptor antagonists and uses thereof” (Gilead Sciences, Inc., priority 2021, dated 2025).

Where only a bound is given, the exact number is not on record here.

This experiment deals with human LPAR1 (Homo sapiens, UniProt Q92633). Nature of the experiment: LPAR1 intracellular calcium mobilization assay (antagonist mode, FLIPR). In kind it is cell-based. The note with it: CHO-K1 EDG2 cells expressing human LPAR1; test compound 0.5 nM to 10 μM pre-incubated 60 minutes at 37° C., then LPA 18:2 at EC80 concentration (100 nM). The procedure, abridged:
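CHO-K1 cells expressing human LPAR1, Calcium 6 dye-loaded with 2.5 mM probenecid, pre-incubated 60 min at 37°C with compound (0.5 nM–10 μM), then challenged with LPA 18:2 at EC80 (100 nM). FLIPR Tetra signal amplitude (max minus min) plotted against log concentration.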

Chain of human LPAR1 (Q92633 whole entry): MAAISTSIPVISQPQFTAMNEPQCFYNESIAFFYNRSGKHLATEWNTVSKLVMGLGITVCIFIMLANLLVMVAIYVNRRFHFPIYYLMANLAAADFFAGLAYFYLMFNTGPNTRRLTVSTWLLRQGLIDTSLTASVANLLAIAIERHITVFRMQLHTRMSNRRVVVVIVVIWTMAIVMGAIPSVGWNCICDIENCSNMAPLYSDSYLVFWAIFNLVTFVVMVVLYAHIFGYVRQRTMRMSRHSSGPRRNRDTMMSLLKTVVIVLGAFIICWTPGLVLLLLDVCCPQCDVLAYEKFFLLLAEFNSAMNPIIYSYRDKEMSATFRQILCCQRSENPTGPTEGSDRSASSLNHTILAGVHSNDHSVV

As to `C[C@@H](OC(=O)Nc1c(-c2ccc(C(=O)NC34CC(C#N)(C3)C4)c(C(F)(F)F)n2)nnn1C)c1cccnc1Cl` [Compound 62, (R)-1-(2-chloropyridin-3-yl)ethyl (4-(5-((3-cyanobicyclo[1.1.1]pentan-1-yl)carbamoyl)-6-(trifluoromethyl)pyridin-2-yl)-1-methyl-1H-1,2,3-triazol-5-yl)carbamate], the EC50 was 14.5 nM.
Then `C[C@@H](OC(=O)Nc1c(-c2ccc(C(=O)NC34CC(F)(C3)C4)c(F)n2)nnn1C)c1cccnc1Cl` [Compound 63, (R)-1-(2-chloropyridin-3-yl)ethyl (4-(6-fluoro-5-((3-fluorobicyclo[1.1.1]pentan-1-yl)carbamoyl)pyridin-2-yl)-1-methyl-1H-1,2,3-triazol-5-yl)carbamate], with 145 nM; and `C[C@@H](OC(=O)Nc1c(-c2ncc(C(=O)NC34CC(F)(C3)C4)cc2F)nnn1C)c1cccnc1Cl` [Compound 64, (R)-1-(2-chloropyridin-3-yl)ethyl (4-(3-fluoro-5-((3-fluorobicyclo[1.1.1]pentan-1-yl)carbamoyl)pyridin-2-yl)-1-methyl-1H-1,2,3-triazol-5-yl)carbamate], with 93.5 nM.
Turning to `C[C@@H](OC(=O)Nc1c(-c2ccc(C(=O)NC34CC(C#N)(C3)C4)c(Cl)n2)nnn1C)c1cccnc1Cl` [Compound 65, (R)-1-(2-chloropyridin-3-yl)ethyl (4-(6-chloro-5-((3-cyanobicyclo[1.1.1]pentan-1-yl)carbamoyl)pyridin-2-yl)-1-methyl-1H-1,2,3-triazol-5-yl)carbamate], the EC50 is under 4.6 nM.
Turning to `C[C@@H](OC(=O)Nc1c(-c2ccc(C(=O)NC34CC(F)(C3)C4)c(C(F)(F)F)n2)nnn1C)c1cccnc1Cl` [Compound 66, (R)-1-(2-chloropyridin-3-yl)ethyl (4-(5-((3-fluorobicyclo[1.1.1]pentan-1-yl)carbamoyl)-6-(trifluoromethyl)pyridin-2-yl)-1-methyl-1H-1,2,3-triazol-5-yl)carbamate], the EC50 is 210 nM.

Usually EC50 stands for the midpoint of the concentration-response curve.
